From PubChem BioAssay AID328 (DTP/NCI, 2004) come the findings set out here.

Molecules are shown by their SMILES. Where “and” joins values, the source holds several entries; their conditions need not be identical. Equal entries are not always repeated. Toxic doses and inconclusive results are not listed.

The test concerns BDF1 mice, P388 leukemia ip, median survival T/C. Put plainly: NCI In Vivo Anticancer Drug Screen. Data for tumor model P388 Leukemia (intraperitoneal) in B6D2F1 (BDF1) mice. The conditions noted are these: endpoint: median survival time, higher = longer survival. Summed up:
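Reported as T/C, where T is the survival measurement in dosed animals and C the same measurement in vehicle controls.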

Setting [1] is: dose: 100.0 mg/kg/injection, schedule: Q04DX003 (ip), vehicle: Klucel (hydroxypropylcellulose) (HPC).
Where [2] appears, read: dose: 200.0 mg/kg/injection, schedule: Q04DX003 (ip), vehicle: Klucel (hydroxypropylcellulose) (HPC).
The mark [3] stands for this setting: dose: 400.0 mg/kg/injection, schedule: Q04DX003 (ip), vehicle: Klucel (hydroxypropylcellulose) (HPC).
Setting [4] is: dose: 100.0 mg/kg/injection, schedule: Q04DX003 (ip), vehicle: saline with Tween-80.
Where [5] appears, read: dose: 200.0 mg/kg/injection, schedule: Q04DX003 (ip), vehicle: saline with Tween-80.
[6] abbreviates: dose: 25.0 mg/kg/injection, schedule: Q04DX003 (ip), vehicle: saline.
The mark [7] stands for this setting: dose: 50.0 mg/kg/injection, schedule: Q01DX009 (ip), vehicle: saline with Tween-80.
The mark [8] stands for this setting: dose: 50.0 mg/kg/injection, schedule: Q04DX003 (ip), vehicle: saline with Tween-80.
Setting [9] is: dose: 100.0 mg/kg/injection, schedule: Q01DX009 (ip), vehicle: saline with Tween-80.
[10] abbreviates: dose: 200.0 mg/kg/injection, schedule: Q01DX009 (ip), vehicle: saline with Tween-80.
Setting [11] is: dose: 3.13 mg/kg/injection, schedule: Q01DX009 (ip), vehicle: saline with Tween-80.
The mark [12] stands for this setting: dose: 6.25 mg/kg/injection, schedule: Q01DX009 (ip), vehicle: saline with Tween-80.
[13] abbreviates: dose: 12.5 mg/kg/injection, schedule: Q01DX009 (ip), vehicle: saline with Tween-80.
Where [14] appears, read: dose: 25.0 mg/kg/injection, schedule: Q01DX009 (ip), vehicle: saline with Tween-80.

As for `CC(C)OC(=S)SSC(=S)OC(C)C`, the T/C (dose: 100.0 mg/kg/injection, schedule: Q01DX001 (ip), vehicle: Klucel (hydroxypropylcellulose) (HPC)) is 118 % of control; the T/C (dose: 100.0 mg/kg/injection, schedule: Q01DX009 (ip), vehicle: Klucel (hydroxypropylcellulose) (HPC)) was 104 % of control; the T/C under setting [1] was 104 % of control; the T/C (dose: 200.0 mg/kg/injection, schedule: Q01DX001 (ip), vehicle: Klucel (hydroxypropylcellulose) (HPC)) was 109 % of control; the T/C (dose: 200.0 mg/kg/injection, schedule: Q01DX009 (ip), vehicle: Klucel (hydroxypropylcellulose) (HPC)) was 109 % of control; the T/C under setting [2] is 118 % of control. Besides, the T/C runs as follows: (dose: 400.0 mg/kg/injection, schedule: Q01DX001 (ip), vehicle: Klucel (hydroxypropylcellulose) (HPC)) 104 % of control; under setting [3], 118 % of control.

`COc1ccc(CCNC(=O)CCN2C(=O)c3ccccc3C2=O)cc1OC`: the T/C by setting is: under setting [4], 104 % of control; under setting [5], 90 % of control; (dose: 400.0 mg/kg/injection, schedule: Q04DX003 (ip), vehicle: saline with Tween-80) 100 % of control.

Turning to `CCCC1CC[N-]CC1.CCCC1CC[N-]CC1.[Cl][Pt+2]([Cl])([Cl])[Cl]`, the T/C is 122 % of control under setting [6]; 150 % of control (dose: 33.0 mg/kg/injection, schedule: Q04DX003 (ip), vehicle: saline with Tween-80); 118 % of control (dose: 37.5 mg/kg/injection, schedule: Q04DX003 (ip), vehicle: saline with Tween-80); 110 % of control under setting [7]; 160 % of control under setting [8].

For `CCN(CC)c1nc(NC2CCCCC2)c2nc(N(CC)CC)nc(NC3CCCCC3)c2n1`, the T/C reads like this: (dose: 3.13 mg/kg/injection, schedule: Q01DX009 (ip), vehicle: Klucel (hydroxypropylcellulose) (HPC)) 101 % of control; (dose: 6.25 mg/kg/injection, schedule: Q01DX009 (ip), vehicle: Klucel (hydroxypropylcellulose) (HPC)) 110 % of control; (dose: 12.5 mg/kg/injection, schedule: Q01DX009 (ip), vehicle: Klucel (hydroxypropylcellulose) (HPC)) 99 % of control; (dose: 25.0 mg/kg/injection, schedule: Q01DX009 (ip), vehicle: Klucel (hydroxypropylcellulose) (HPC)) 101 % of control.

In the case of `CC1CC2CCCC(O)=C2C(=O)O1` (stereo not drawn), the T/C by setting is: (dose: 37.0 mg/kg/injection, schedule: Q01DX010 (ip), vehicle: saline) 95 % of control; (dose: 75.0 mg/kg/injection, schedule: Q01DX010 (ip), vehicle: saline) 100 % of control; (dose: 150.0 mg/kg/injection, schedule: Q01DX010 (ip), vehicle: saline) 105 % of control.

Turning to `OC1(O)CCN(Cc2ccccc2)CC1`, the T/C was 122 % of control under setting [7]; 95 % of control under setting [8]; 104 % of control under setting [9]; 100 % of control under setting [4]; 95 % of control under setting [10]; 105 % of control under setting [5].

`NC(=S)NCc1ccccc1C(O)c1ccccc1` (stereo not drawn): the T/C is, setting by setting: under setting [7], 94 % of control; under setting [9], 91 % of control; under setting [10], 101 % of control.

In the case of `COc1cc([C@@H]2c3cc4c(c(O)c3C[C@H]3COC(=O)[C@@H]32)OCO4)cc(OC)c1OC`, the T/C (dose: 0.5 mg/kg/injection, schedule: Q01DX001 (ip), vehicle: other) is 115 % of control; the T/C (dose: 0.5 mg/kg/injection, schedule: Q01DX001 (ip), vehicle: saline) is 90 % of control; the T/C (dose: 0.5 mg/kg/injection, schedule: Q01DX010 (ip), vehicle: other) was 122 % of control; the T/C (dose: 1.0 mg/kg/injection, schedule: Q01DX001 (ip), vehicle: other) is 121 % of control; the T/C (dose: 1.0 mg/kg/injection, schedule: Q01DX001 (ip), vehicle: saline) was 109 % of control; the T/C (dose: 1.0 mg/kg/injection, schedule: Q01DX010 (ip), vehicle: other) was 150 % of control. Further, the T/C reads like this: (dose: 2.0 mg/kg/injection, schedule: Q01DX001 (ip), vehicle: saline) 118 % of control; (dose: 2.0 mg/kg/injection, schedule: Q01DX010 (ip), vehicle: other) 168 % of control; (dose: 2.0 mg/kg/injection, schedule: Q01DX010 (ip), vehicle: saline) 104 % of control; (dose: 4.0 mg/kg/injection, schedule: Q01DX001 (ip), vehicle: saline) 118 % of control.

`NOCc1cc2c(cc1Cl)OCO2`: the T/C is, setting by setting: under setting [1], 95 % of control; under setting [2], 100 % of control; under setting [3], 113 % of control.

Regarding `CC1(C)CC(=O)OC(=O)C1`, the T/C is 93 % of control under setting [11], 100 % of control under setting [12], 95 % of control under setting [13] and 105 % of control under setting [14].

With `NCCc1ccc(OCc2ccccc2)c(OCc2ccccc2)c1`, the T/C (dose: 8.0 mg/kg/injection, schedule: Q01DX009 (ip), vehicle: saline) is 100 % of control; the T/C (dose: 12.0 mg/kg/injection, schedule: Q01DX009 (ip), vehicle: saline) is 104 % of control; the T/C (dose: 12.5 mg/kg/injection, schedule: Q04DX003 (ip), vehicle: saline) was 104 % of control; the T/C (dose: 18.0 mg/kg/injection, schedule: Q01DX009 (ip), vehicle: saline) is 116 % of control; the T/C under setting [6] is 104 % of control; the T/C (dose: 50.0 mg/kg/injection, schedule: Q04DX003 (ip), vehicle: saline) is 100 % of control.

In the case of `CCCCN(CCCC)CC(O)c1cc(Cl)cc2c1-c1ccc(Cl)cc1C2` (stereo not drawn), the T/C runs as follows: under setting [7], 105 % of control; under setting [9], 114 % of control; under setting [10], 98 % of control.

For `O=C1CN(N2C(=O)CSC2C23CC4CC(CC(C4)C2)C3)C(=O)CN1c1ccccc1` (stereo not drawn), the T/C is 92 % of control under setting [7] and 92 % of control under setting [9].

On to `CC(C)COP(=O)(O)OCC(C)C.[Al]`, for which the T/C reads like this: under setting [7], 92 % of control; under setting [9], 94 % of control; under setting [10], 94 % of control.

On to `O=C(Nc1ccc(NC(=O)c2ccc(C3=NCCCN3)cc2)cc1)Nc1ccc(C2=NCCCN2)cc1`, for which the T/C is 113 % of control (dose: 2.5 mg/kg/injection, schedule: Q01DX009 (ip), vehicle: saline with Tween-80); 168 % of control (dose: 5.0 mg/kg/injection, schedule: Q01DX009 (ip), vehicle: saline with Tween-80); 109 % of control (dose: 5.0 mg/kg/injection, schedule: Q04DX003 (ip), vehicle: saline with Tween-80); 175 % of control (dose: 6.6 mg/kg/injection, schedule: Q01DX009 (ip), vehicle: saline with Tween-80); 233 % of control and 204 % of control (dose: 10.0 mg/kg/injection, schedule: Q01DX009 (ip), vehicle: saline with Tween-80); 109 % of control (dose: 10.0 mg/kg/injection, schedule: Q04DX003 (ip), vehicle: saline with Tween-80). Also, the T/C (dose: 15.0 mg/kg/injection, schedule: Q01DX009 (ip), vehicle: saline with Tween-80) is 233 % of control.

For `NNC(=O)c1ccc(Cl)cc1Nc1cccc(Cl)c1`, the T/C by setting is: (dose: 50.0 mg/kg/injection, schedule: Q01DX001 (ip), vehicle: saline with Tween-80) 100 % of control; (dose: 100.0 mg/kg/injection, schedule: Q01DX001 (ip), vehicle: saline with Tween-80) 100 % of control; (dose: 200.0 mg/kg/injection, schedule: Q01DX001 (ip), vehicle: saline with Tween-80) 104 % of control.

As to `O=C1C=CC(=O)c2c(O)cccc21`, the T/C runs as follows: (dose: 1.56 mg/kg/injection, schedule: Q01DX009 (ip), vehicle: saline with Tween-80) 90 % of control; under setting [11], 95 % of control; under setting [12], 95 % of control.

Turning to `C=Cc1c(C)c(O)cc2c1-c1ccc(O)c(C)c1CC2`, the T/C under setting [12] was 104 % of control, the T/C under setting [13] is 104 % of control, the T/C under setting [14] was 104 % of control and the T/C under setting [7] is 100 % of control.

For `CC(=O)Nc1ccccc1C1SCCCS1`, the T/C runs as follows: (dose: 50.0 mg/kg/injection, schedule: Q04DX002 (ip), vehicle: saline with Tween-80) 102 % of control; (dose: 100.0 mg/kg/injection, schedule: Q04DX002 (ip), vehicle: saline with Tween-80) 98 % of control; (dose: 200.0 mg/kg/injection, schedule: Q04DX002 (ip), vehicle: saline with Tween-80) 106 % of control.
